Reference: US6391879B1, “Therapeutic anti-fungal nail preparation” (Astan, Inc., priority 1998, dated 2002)

Test system: fungi in Onychomycosis and tinea pedis
Assay: Tolnaftate solution concentration sufficient to kill the fungi
Conditions: used in a penetrating base
From the text: Tolnaftate USP (known by the trade name Tinactin ™) is a white crystalline powder that has been used as a primary agent in anti-fungal preparations. […] Other anti-fungal agents effective in fighting the fungi causing Onychomycosis and tinea pedis and suitable for use in the present invention are: Clotrimazole, Tioconazole, Nystatin, Terconazole, Butoconazole Nitrate, Unecylenic Acid, Clioquinol, Ciclopirox, Olamine, Econazole Nitrate, Triacetin, Miconazole, Flucytosine, and Ketoconazole.

## Cc1cccc(N(C)C(=S)Oc2ccc3ccccc3c2)c1 [Tolnaftate]
  solution concentration sufficient to kill the fungi: 1%
